Patent US20220296613A1, “FOOD-INDEPENDENT DOSING OF CV-10155 TO TREAT GABAA DISORDERS” (priority 2021, published 2022)
Read-outs that look alike come from different tables or passages of the source.

Tests used:
[1] = clinical; conditions: human, in vivo
[2] = target: α4β3δ GABAA receptors (Homo sapiens, UniProt P28472+P48169); experiment: Synchropatch electrophysiology, potentiation of extra synaptic GABAA receptors; assay type: cell-based
[3] = tested on: models of depression, anxiety, seizure, and EEG; experiment: Preclinical rodent models of seizure, anxiety, depression and EEG biomarker (overall); assay type: in vivo
[4] = Pharmacokinetics of CV-10155 in preclinical rodent studies; conditions: for AUC(0-inf) / Cmax / Tmax: rodent, in vivo, po
[5] = in vivo; conditions: beagle, dog, iv, 1 mg/kg
[6] = not given; remark: listed apart in the source
[7] = tested on: sleep states; experiment: Sleep states by electroencephalogram (EEG) in rats; assay type: in vivo
Experimental: The effect of CV-10155 on various sleep states was analyzed in rats. Rats were given various doses of CV-10155, and sleep states were analyzed by electroencephalogram (EEG).
FIG. 17 is a hypnogram showing the percentage of time spent in different sleep states by rats given drug vehicle. Purple bars represent REM sleep; green bars represent non-REM sleep; blue bars represent quiet waking; and red bars represent active waking.
FIG. 18 is a hypnogram showing the percentage of time spent in different sleep states by rats given 1 mg/kg CV-10155. Purple bars represent REM sleep; green bars represent non-REM sleep; blue bars represent quiet waking; and red bars represent active waking.
FIG. 19 is a hypnogram showing the percentage of time spent in different sleep states by rats given 3 mg/kg CV-10155. Purple bars represent REM sleep; green bars represent non-REM sleep; blue bars represent quiet waking; and red bars represent active waking.
FIG. 20 is a hypnogram showing the percentage of time spent in different sleep states by rats given 6 mg/kg CV-10155. Purple bars represent REM sleep; green bars represent non-REM sleep; blue bars represent quiet waking; and red bars represent active waking.
FIG. 21 is a hypnogram showing the percentage of time spent in different sleep states by rats given 10 mg/kg CV-10155. […]

[8] = HV, 60 mg evening dosing (n = 12)
[9] = humans, 60 mg, day 7 MAD, morning dosing, fasted
[10] = humans, 60 mg, evening, fed state, N = 9
[11] = humans, 60 mg, morning, fasted state, N = 9
[12] = humans, evening, fed state, subject a, dosing day 1
[13] = humans, evening, fed state, subject l, dosing day 1
[14] = humans, evening, fed state, subject o, dosing day 3
[15] = humans, evening, fed state, subject p, dosing day 2
[16] = humans, evening, fed state, subject p, dosing day 7
[17] = humans, evening, fed state, subject p, dosing day 8
[18] = humans, evening, fed state, subject v, dosing day 4
[19] = 1 mg/kg (minimal effective dose), study including male and female subjects
[20] = 3 mg/kg, study including male and female subjects
[21] = 5 mg/kg, study including only male subjects
[22] = 10 mg/kg, study including male and female subjects

Chain of α4β3δ GABAA receptors (P48169 36-554): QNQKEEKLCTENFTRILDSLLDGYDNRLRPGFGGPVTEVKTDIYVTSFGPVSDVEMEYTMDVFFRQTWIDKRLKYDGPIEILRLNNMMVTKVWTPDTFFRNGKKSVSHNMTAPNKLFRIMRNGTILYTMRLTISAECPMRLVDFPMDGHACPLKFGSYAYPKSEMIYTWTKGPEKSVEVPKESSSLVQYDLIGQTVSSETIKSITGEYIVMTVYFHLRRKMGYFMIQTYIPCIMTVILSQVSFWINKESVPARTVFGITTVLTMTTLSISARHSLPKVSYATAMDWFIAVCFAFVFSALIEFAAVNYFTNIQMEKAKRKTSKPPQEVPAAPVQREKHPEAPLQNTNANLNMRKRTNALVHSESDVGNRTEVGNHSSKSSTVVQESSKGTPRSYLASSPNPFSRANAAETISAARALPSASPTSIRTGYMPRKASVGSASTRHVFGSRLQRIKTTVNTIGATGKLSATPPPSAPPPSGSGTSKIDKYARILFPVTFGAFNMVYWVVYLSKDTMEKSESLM
Chain of α4β3δ GABAA receptors (P28472 26-473): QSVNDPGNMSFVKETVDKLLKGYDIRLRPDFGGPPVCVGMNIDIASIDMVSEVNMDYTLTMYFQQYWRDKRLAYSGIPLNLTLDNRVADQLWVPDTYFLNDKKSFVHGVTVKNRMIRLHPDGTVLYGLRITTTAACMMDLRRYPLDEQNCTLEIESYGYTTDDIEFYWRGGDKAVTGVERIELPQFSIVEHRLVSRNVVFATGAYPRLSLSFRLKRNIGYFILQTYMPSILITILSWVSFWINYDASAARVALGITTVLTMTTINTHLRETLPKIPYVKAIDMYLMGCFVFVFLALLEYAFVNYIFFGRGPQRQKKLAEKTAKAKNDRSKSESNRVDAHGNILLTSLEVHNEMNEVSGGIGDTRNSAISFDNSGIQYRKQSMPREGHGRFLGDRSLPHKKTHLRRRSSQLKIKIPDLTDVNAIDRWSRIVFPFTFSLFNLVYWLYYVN
Chain of α4β3δ GABAA receptors (O14764 25-452 partner): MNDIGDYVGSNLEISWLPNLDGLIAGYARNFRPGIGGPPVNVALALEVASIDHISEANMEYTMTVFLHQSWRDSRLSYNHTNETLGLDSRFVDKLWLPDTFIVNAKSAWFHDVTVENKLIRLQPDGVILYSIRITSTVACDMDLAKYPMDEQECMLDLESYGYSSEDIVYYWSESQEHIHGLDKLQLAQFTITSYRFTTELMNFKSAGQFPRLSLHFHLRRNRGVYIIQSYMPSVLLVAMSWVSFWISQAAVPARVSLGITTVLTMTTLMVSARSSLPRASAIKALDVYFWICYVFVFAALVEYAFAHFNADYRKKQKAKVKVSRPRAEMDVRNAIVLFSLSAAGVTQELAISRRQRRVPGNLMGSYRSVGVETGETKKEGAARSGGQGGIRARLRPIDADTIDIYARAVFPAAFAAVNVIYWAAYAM

## C[C@@]1(O)CC[C@@]2(C)[C@@H](CC[C@@H]3[C@@H]2CC[C@]2(C)[C@@H](C(=O)Cn4cc(C#N)cn4)CC[C@@H]32)C1 [CV-10155, 1-[2-[(3R,5S,8R,9S,10S,13S,14S,17S)-3-hydroxy-3,10,13-trimethyl-1,2,4,5,6,7,8,9,11,12,14,15,16,17-tetradecahydrocyclopenta[a]phenanthren-17-yl]-2-oxoethyl]pyrazole-4-carbonitrile]
[1]; 135 mg
  AUC(0-inf): 3660 ng·h/mL
  Cmax: 333 ng/mL
  Tmax: 2.83 h
  half-life: 25 h
[1]; po
  Tmax: 2 to 4 h
  half-life: 24 to 26 h
[2]
  EC50: 165 nM
[2]; α4β3δ vs α1β2γ2
  fold higher efficiency at extra synaptic vs. synaptic channels: 3 fold
[3]; most rodent models of seizure
  dose from which robust efficacy was observed: ≥ 3 mg/kg
[3]; rodent models of seizure
  minimal effective dose (MED): 1 mg/kg
[8]
  Dizziness, AEs % of subjects: 16.7%
  Headache, AEs % of subjects: 8.3%
  Somnolence, AEs % of subjects: 8.3%
human, in vivo, 60 mg
  Racc AUC: 1.84
humans, 60 mg daily in the evening in a fed state
  ratio of Cmax/trough on day 7: 3.47
humans, 60 mg daily in the morning in a fasted state
  ratio of Cmax/trough on day 7: 6.09
humans, 60 mg dosed in the evening
  tolerability profile compared to PRAX-114 and Sage-217: favorable tolerability profile compared to PRAX-114 and one comparable to that of Sage-217
humans, 60 mg doses
  exposure levels in humans vs 30 mg doses of Sage-217: higher exposure levels
humans, 60 mg orally once per day for seven days
  absorption, morning fasted vs evening fed: no significant difference in absorption
[9]
  Cmin: 41.5 ng/mL
  Ratio (Cmax/Cmin): 6.07
[10]
  AE Back pain (Musculoskeletal and connective tissue disorders), #: 1
  AE Bloating (Gastrointestinal disorders), #: 1
  AE Dizziness (Nervous system disorders), #: 1
  AE Headache (Nervous system disorders), #: 2
humans, 60 mg, evening, fed state, N = 9, printed on two separate lines
  AE Sleepiness (Nervous system disorders), #: 1
[11]
  AE Dizziness (Nervous system disorders), #: 1
  AE Feeling sleepy (Nervous system disorders), #: 1
  AE Feeling tired (General disorders and administration site conditions), #: 2
  AE Headache (Nervous system disorders), #: 2
  AE Sleepiness (Nervous system disorders), #: 9
  AE Tiredness (General disorders and administration site conditions), #: 3
[12]
  Somnolence: duration: 10.62 h
  Somnolence: severity: Mild
[13]
  Headache: duration: 13.25 h
  Headache: onset from dose: pre-dose
  Headache: severity: Mild
[14]
  Abdominal distension: duration: 06.50 h
  Abdominal distension: severity: Mild
[15]
  Dizziness: duration: 20.50 h
  Dizziness: severity: Mild
[16]
  Dizziness: duration: 13.00 h
  Dizziness: severity: Mild
[17]
  Headache: duration: 14.50 h
  Headache: severity: Moderate
[18]
  Back pain: duration: 39.25 h
  Back pain: severity: Mild
humans, oral administration in the evening to fed subjects
  adverse effects that interfere with sleeping: does not produce adverse effects that interfere with sleeping
[4]; [19]
  1/2 life: 3.66-6.82
  Oral BA: 58.6-92.4
[4]; 2 mg/kg, study including only male subjects
  Oral BA: 47.2
[4]; [20]
  1/2 life: 2.84-4.96
  Oral BA: 53-92.3
[4]; [21]
  1/2 life: 4.19
  Oral BA: 58.1
[4]; [22]
  1/2 life: 3.23-4.80
  Oral BA: 79.7-100
[4]; both, 1 mg/kg
  AUC(0-inf): 508 to 1300 ng·h/mL
  Cmax: 84.4 to 128 ng/mL
  Tmax: 1.5 to 2 h
[4]; both, 3 mg/kg
  AUC(0-inf): 1380 to 3900 ng·h/mL
  Cmax: 270 to 440 ng/mL
  Tmax: 1.25 to 2.5 h
[4]; both, 10 mg/kg
  AUC(0-inf): 6850 to 14700 ng·h/mL
  Cmax: 1160 ng/mL
  Tmax: 1.25 to 2.25 h
[4]; male, 2 mg/kg
  AUC(0-inf): 1320 ng·h/mL
  Cmax: 224 ng/mL
  Tmax: 1.7 h
[4]; male, 5 mg/kg
  AUC(0-inf): 2610 ng·h/mL
  Cmax: 499 ng/mL
  Tmax: 0.83 h
[5]
  Vd: 1.92 L/kg
  clearance: 2.17 mL/min/kg
  half-life: 13.9 h
[6]; human, in vivo, po
  dose proportionality of AUC and Cmax: dose-proportional increase
[6]; humans
  MTD, single ascending dose (SAD): ETX-155 135 mg SAD MTD
  dose-limiting adverse event: Ataxia
[6]; humans, oral 30 mg, fed vs fasted
  effect of food consumption on absorption: no clinically meaningful effect
[6]; humans, single oral dose, 200 mg
  adverse events observed: ataxia, tremor and tachycardia
[6]; humans, single oral dose, 5-200 mg dose range
  inter-subject variability (CV) of AUC and Cmax: ≤ 30%
[6]; humans, single oral dose, range of 5-135 mg
  dose-limiting adverse events: No dose-limiting adverse events were observed
[6]; humans, single oral dose, mild to moderate, only observed at the highest doses
  most common adverse events: Dizziness and somnolence
[7]; EEG, 1, 3, 6, 10 mg/kg tested
  dose producing an increase in non-REM sleep: ≥ 3 mg/kg
[7]; within well-tolerated and efficacious dose ranges
  target engagement (EEG): dose-dependent target engagement
